Source: ChEMBL document CHEMBL4138123, “Design, synthesis and biological evaluation of novel pyrazolochalcones as potential modulators of PI3K/Akt/mTOR pathway and inducers of apoptosis in breast cancer cells” (Eur J Med Chem, 2017)

What was measured:
SNB-19 = test: Cytotoxicity against human SNB19 cells assessed as cell growth at 0.1 uM after 48 hrs by sulforhodamine B assay relative to control; assay type: functional; details: SNB-19, 48 h, read-out: Activity
OVCAR-4 [1] = test: Cytotoxicity against human OVCAR4 cells assessed as cell growth at 1 uM after 48 hrs by sulforhodamine B assay relative to control; assay type: functional; details: OVCAR-4, 48 h, read-out: Activity
MDA-MB-468 = test: Cytotoxicity against human MDA-MB-468 cells assessed as cell growth at 10 uM after 48 hrs by sulforhodamine B assay relative to control; assay type: functional; details: MDA-MB-468, 48 h, read-out: Activity
SK-MEL-5 = test: Cytotoxicity against human SK-MEL-5 cells assessed as cell growth at 1 uM after 48 hrs by sulforhodamine B assay relative to control; assay type: functional; details: SK-MEL-5, 48 h, read-out: Activity
SF-268 = test: Cytotoxicity against human SF268 cells assessed as cell growth at 0.01 uM after 48 hrs by sulforhodamine B assay relative to control; assay type: functional; details: SF-268, 48 h, read-out: Activity
A549 = test: Cytotoxicity against human A549/ATCC cells assessed as growth inhibition after 48 hrs by sulforhodamine B assay; assay type: functional; details: A549, 48 h
MDA-MB-231 = test: Cytotoxicity against human MDA-MB-231 cells assessed as growth inhibition after 48 hrs by MTT assay; assay type: functional, cell-based; details: MDA-MB-231, 48 h
OVCAR-4 [2] = test: Cytotoxicity against human OVCAR4 cells assessed as cell growth at 10 uM after 48 hrs by sulforhodamine B assay relative to control; assay type: functional; details: OVCAR-4, 48 h, read-out: Activity
NCI-H522 = test: Cytotoxicity against human NCI-H522 cells assessed as cell growth at 100 uM after 48 hrs by sulforhodamine B assay relative to control; assay type: functional; details: NCI-H522, 48 h, read-out: Activity
HL-60(TB) = test: Cytotoxicity against human HL-60(TB) cells assessed as growth inhibition after 48 hrs by sulforhodamine B assay; assay type: functional; details: HL-60, 48 h
HCC 2998 = test: Cytotoxicity against human HCC2998 cells assessed as growth inhibition after 48 hrs by sulforhodamine B assay; assay type: functional; details: HCC 2998, 48 h
IGROV-1 = test: Cytotoxicity against human IGROV1 cells assessed as cell growth at 1 uM after 48 hrs by sulforhodamine B assay relative to control; assay type: functional; details: IGROV-1, 48 h, read-out: Activity
MCF7 [3] = test: Cytotoxicity against human MCF7 cells assessed as cell growth at 0.01 uM after 48 hrs by sulforhodamine B assay relative to control; assay type: functional; details: MCF7, 48 h, read-out: Activity
TK-10 [4] = test: Cytotoxicity against human TK10 cells assessed as cell growth at 100 uM after 48 hrs by sulforhodamine B assay relative to control; assay type: functional; details: TK-10, 48 h, read-out: Activity
OVCAR-8 [5] = test: Cytotoxicity against human OVCAR8 cells assessed as cell growth at 0.01 uM after 48 hrs by sulforhodamine B assay relative to control; assay type: functional; details: OVCAR-8, 48 h, read-out: Activity
OVCAR-8 [6] = test: Cytotoxicity against human OVCAR8 cells assessed as cell growth at 1 uM after 48 hrs by sulforhodamine B assay relative to control; assay type: functional; details: OVCAR-8, 48 h, read-out: Activity
UO-31 = test: Cytotoxicity against human UO31 cells assessed as cell growth at 0.1 uM after 48 hrs by sulforhodamine B assay relative to control; assay type: functional; details: UO-31, 48 h, read-out: Activity
UACC-62 = test: Cytotoxicity against human UACC62 cells assessed as growth inhibition after 48 hrs by sulforhodamine B assay; assay type: functional; details: UACC-62, 48 h
OVCAR-3 = test: Cytotoxicity against human OVCAR3 cells assessed as cell growth at 100 uM after 48 hrs by sulforhodamine B assay relative to control; assay type: functional; details: OVCAR-3, 48 h, read-out: Activity
NCI-H226 [7] = test: Cytotoxicity against human NCI-H226 cells assessed as cell growth at 1 uM after 48 hrs by sulforhodamine B assay relative to control; assay type: functional; details: NCI-H226, 48 h, read-out: Activity
HT-29 = test: Cytotoxicity against human HT-29 cells assessed as growth inhibition after 48 hrs by sulforhodamine B assay; assay type: functional; details: HT-29, 48 h
TK-10 [8] = test: Cytotoxicity against human TK10 cells assessed as cell growth at 0.1 uM after 48 hrs by sulforhodamine B assay relative to control; assay type: functional; details: TK-10, 48 h, read-out: Activity
HCT-15 [9] = test: Cytotoxicity against human HCT15 cells assessed as cell growth at 0.01 uM after 48 hrs by sulforhodamine B assay relative to control; assay type: functional; details: HCT-15, 48 h, read-out: Activity
UACC-257 = test: Cytotoxicity against human UACC257 cells assessed as cell growth at 10 uM after 48 hrs by sulforhodamine B assay relative to control; assay type: functional; details: UACC-257, 48 h, read-out: Activity
SF-539 = test: Cytotoxicity against human SF539 cells assessed as growth inhibition after 48 hrs by sulforhodamine B assay; assay type: functional; details: SF-539, 48 h
CCRF-CEM = test: Cytotoxicity against human CCRF-CEM cells assessed as cell growth at 0.01 uM after 48 hrs by sulforhodamine B assay relative to control; assay type: functional; details: read-out: Activity
NCI-H226 [10] = test: Cytotoxicity against human NCI-H226 cells assessed as cell growth at 10 uM after 48 hrs by sulforhodamine B assay relative to control; assay type: functional; details: NCI-H226, 48 h, read-out: Activity
U-251 = test: Cytotoxicity against human U251 cells assessed as cell growth at 0.01 uM after 48 hrs by sulforhodamine B assay relative to control; assay type: functional; details: U-251, 48 h, read-out: Activity
OVCAR-8 [11] = test: Cytotoxicity against human OVCAR8 cells assessed as cell growth at 0.1 uM after 48 hrs by sulforhodamine B assay relative to control; assay type: functional; details: OVCAR-8, 48 h, read-out: Activity
MCF7 [12] = test: Cytotoxicity against human MCF7 cells assessed as growth inhibition after 48 hrs by sulforhodamine B assay; assay type: functional; details: MCF7, 48 h
NCI/ADR-RES = test: Cytotoxicity against human NCI/ADR-RES cells assessed as cell growth at 100 uM after 48 hrs by sulforhodamine B assay relative to control; assay type: functional; details: read-out: Activity
MOLT-4 = test: Cytotoxicity against human MOLT4 cells assessed as cell growth at 0.1 uM after 48 hrs by sulforhodamine B assay relative to control; assay type: functional; details: MOLT-4, 48 h, read-out: Activity
SK-MEL-28 = test: Cytotoxicity against human SK-MEL-28 cells assessed as cell growth at 10 uM after 48 hrs by sulforhodamine B assay relative to control; assay type: functional; details: SK-MEL-28, 48 h, read-out: Activity
K562 = test: Cytotoxicity against human K562 cells assessed as cell growth at 0.01 uM after 48 hrs by sulforhodamine B assay relative to control; assay type: functional; details: K562, 48 h, read-out: Activity
HCT-15 [13] = test: Cytotoxicity against human HCT15 cells assessed as growth inhibition after 48 hrs by sulforhodamine B assay; assay type: functional; details: HCT-15, 48 h

`COc1cc(-c2cc(/C=C/C(=O)c3ccc(Cl)c(Cl)c3)[nH]n2)cc(OC)c1OC` was tested, and the growth at 0.1 µM (SNB-19) was 92%, the growth at 1 µM (OVCAR-4 [1]) was 107% and the growth at 10 µM (MDA-MB-468) was -13%. It also gave a growth at 1 µM (SK-MEL-5) of 94%, a growth at 0.01 µM (SF-268) of 92% and an LC50 (concentration giving 50% net cell kill) (A549) of over 100 µM. For the same compound, the TGI (A549) was over 100 µM, the IC50 (MDA-MB-231) was 2.1 µM and the growth at 10 µM (OVCAR-4 [2]) was 52%. For the same compound, the growth at 100 µM (NCI-H522) was -65%, the LC50 (HL-60(TB)) was over 100 µM and the TGI (HL-60(TB)) was 36.7 µM. It also gave an LC50 (HCC 2998) of over 100 µM, a TGI (HCC 2998) of 31.4 µM and a growth at 1 µM (IGROV-1) of 99%. The growth at 0.01 µM (MCF7 [3]) was 105%, the growth at 100 µM (TK-10 [4]) was -27% and the growth at 0.01 µM (OVCAR-8 [5]) was 94%. For the same compound, the growth at 1 µM (OVCAR-8 [6]) was 88%, the growth at 0.1 µM (UO-31) was 85% and the LC50 (UACC-62) was over 100 µM. For the same compound, the TGI (UACC-62) was over 100 µM, the growth at 100 µM (OVCAR-3) was -30% and the growth at 1 µM (NCI-H226 [7]) was 96%. For the same compound, the LC50 (HT-29) was over 100 µM, the TGI (HT-29) was over 100 µM and the growth at 0.1 µM (TK-10 [8]) was 91%. For the same compound, the growth at 0.01 µM (HCT-15 [9]) was 69%, the growth at 10 µM (UACC-257) was 66% and the LC50 (concentration killing 50% of cells) (SF-539) was 57.8 µM. For the same compound, the TGI (SF-539) was 18.7 µM, the growth at 0.01 µM (CCRF-CEM) was 98% and the growth at 10 µM (NCI-H226 [10]) was 67%. For the same compound, the growth at 0.01 µM (U-251) was 97%, the growth at 0.1 µM (OVCAR-8 [11]) was 97% and the LC50 (MCF7 [12]) was over 100 µM. For the same compound, the TGI (MCF7 [12]) was over 100 µM, the growth at 100 µM (NCI/ADR-RES) was 5% and the growth at 0.1 µM (MOLT-4) was 102%. It also gave a growth at 10 µM (SK-MEL-28) of 73% and a growth at 0.01 µM (K562) of 99%.
In the case of `COc1ccc(C(=O)/C=C/c2cc(-c3ccc4c(c3)OCO4)n[nH]2)cc1OC`, the growth at 0.1 µM (SNB-19) is reported as 89%, the growth at 1 µM (OVCAR-4 [1]) is reported as 65% and the growth at 10 µM (MDA-MB-468) is reported as -45%. It also gave a growth at 1 µM (SK-MEL-5) of 95%, a growth at 0.01 µM (SF-268) of 93% and an LC50 (concentration giving 50% net cell kill) (A549) of over 100 µM. For the same compound, the TGI (A549) was 15.8 µM, the IC50 (MDA-MB-231) was 1.5 µM and the growth at 10 µM (OVCAR-4 [2]) was 18%. The growth at 100 µM (NCI-H522) was -89%, the LC50 (HL-60(TB)) was over 100 µM and the TGI (HL-60(TB)) was 11.8 µM. The LC50 (HCC 2998) was 48.1 µM, the TGI (HCC 2998) was 17.3 µM and the growth at 1 µM (IGROV-1) was 93%. It also gave a growth at 0.01 µM (MCF7 [3]) of 92%, a growth at 100 µM (TK-10 [4]) of -58% and a growth at 0.01 µM (OVCAR-8 [5]) of 99%. The growth at 1 µM (OVCAR-8 [6]) was 89%, the growth at 0.1 µM (UO-31) was 81% and the LC50 (UACC-62) was 40.9 µM. It also gave a TGI (UACC-62) of 14.8 µM, a growth at 100 µM (OVCAR-3) of -67% and a growth at 1 µM (NCI-H226 [7]) of 106%. For the same compound, the LC50 (HT-29) was over 100 µM, the TGI (HT-29) was 11.3 µM and the growth at 0.1 µM (TK-10 [8]) was 92%. The growth at 0.01 µM (HCT-15 [9]) was 92%, the growth at 10 µM (UACC-257) was 42% and the LC50 (concentration killing 50% of cells) (SF-539) was 11.9 µM. It also gave a TGI (SF-539) of 4.47 µM, a growth at 0.01 µM (CCRF-CEM) of 99% and a growth at 10 µM (NCI-H226 [10]) of 1%. It also gave a growth at 0.01 µM (U-251) of 90%, a growth at 0.1 µM (OVCAR-8 [11]) of 98% and a GI50 (MCF7 [12]) of 3.27 µM. For the same compound, the LC50 (MCF7 [12]) was over 100 µM, the TGI (MCF7 [12]) was 16.8 µM and the LC50 (HCT-15 [13]) was over 100 µM. For the same compound, the TGI (HCT-15 [13]) was over 100 µM, the growth at 0.1 µM (MOLT-4) was 97% and the growth at 10 µM (SK-MEL-28) was 36%. For the same compound, the growth at 0.01 µM (K562) was 96%.
